Experimental data as given in patent US11413337B2, “Peptide conjugated particles for the treatment of inflammation” (Northwestern University, priority 2012, dated 2022).
Where no end group is shown, it is not given here.

How the values were obtained:
[1] = tested on: Relapsing Experimental Autoimmune Encephalitis (R-EAE); test: prophylactic tolerance in PLP139-151/CFA-induced R-EAE, particles given day −7; format: in vivo, mouse; conditions: for prevention of disease induction: treated day −7 relative to immunization; for clinical score: treated day −7
[2] = tested on: Th1 and Th17 responses; test: induction of antigen-specific Th1 and Th17 responses, draining lymph node cells; format: in vivo, mouse; conditions: BALB/c mice, iv Day −7, measured Day 10
Experimental: To determine whether administration of antigen-coupled particles inhibit induction of T-helper cells, either MOG35-55-PLG or OVA323-339-PLG particles were administered intravenously to BALB/c mice at Day −7. On Day 0, OVA323-339-PLG particles and Complete Freund's Adjuvant (CFA) were administered subcutaneously to the mice. The animals were re-stimulated with either MOG35-55-PLG or OVA323-339-PLG particles on Day 10 and the draining lymph node cells were isolated. The CPM and levels of IL-17, GM-CSF, IFN-γ, IL-10, and IL-4 were measured at Day 10.

[3] = tested on: cervical spinal cord; test: spinal cord histology and in vivo imaging in R-EAE; parameters: species or system mouse; conditions: for staining for CD45, CD4, and CD11b: spinal cord
Experimental: An additional therapeutic tolerance strategy was performed by delivering PLP139-151-PLG or OVA323-339 PLG to mice. […] Mice were treated with PLP-PLG or OVA323-339-PLG and the tissue was retrieved at day 40. The cervical spinal cord was isolated and sectioned to investigate the immune response within the CNS, which underlies the pathology of R-EAE and multiple sclerosis.
The clinical scores and percent incidence of EAE were determined (FIG. 10B) and the spinal cords observed via in vivo imaging (FIGS. 10A and 11). […] The bar graphs give the numerical numbers to the signal strength shown in the brain and SC scans.

[4] = tested on: allergic airway inflammation; test: prophylactic allergic airway inflammation, OVA/Alum; format: in vivo, mouse
Experimental: To test the prophylactic effect of OVA encapsulated in PLG particles on airway inflammation, mice were treated intravenously with OVA-PLG at day −7. On day 0, the mice received intraperitoneal injections of OVA/Alum at a dose of 10 μg/mouse. On day 7, the mice were again treated intravenously with OVA-PLG and received another 10 μg/mouse ip injection of OVA/Alum on day 14. Between days 28 and 30, the mice were treated three times with aerosolized OVA.

[5] = tested on: mediastinal lymph nodes; test: OVA-specific in vitro recall responses from mediastinal lymph nodes; format: cell-based, mouse
Text: Moreover treatment with OVA-PLG decreases the release of cytokines after restimulation with OVA.

[6] = tested on: allergic airway inflammation; test: therapeutic allergic airway inflammation, OVA/Alum; format: in vivo, mouse
Experimental: To test the therapeutic effect of OVA encapsulated in PLG particles on airway inflammation, mice were treated intraperitoneally with OVA/Alum at a dose of 10 μg/mouse on day 0 and day 14. The mice were intravenously administered with OVA-PLG on days 28, and 42. Between days 56-58, the mice were treated three times with aerosolized OVA.
The animals were treated as described above except that on days 28 and 42, the mice were treated with either OVA encapsulated in PLG particles, or OVA coupled to PLG particles.

[7] = tested on: CD45.1 donor cells; test: engraftment of male CD45.1 bone marrow cells in female CD45.2 mice; format: in vivo, mouse
Text: Female CD45.2 mice were tolerized with either OVA-PLG or the control peptide Dby-PLG (the major H-Y antigen expressed by Male C57BL/6 mice) on day −7. On day −1, the mice were irradiated with 200 rads and were then transplanted with 1×10^6, 5×10^6, or 1×10^7 bone marrow cells from male CD45.1 mice on day 0. The recipient mice were then tolerized with either OVA-PLG, Dby-SP, or Dby-PLG on day 1 and the blood harvested for FACS analysis of chimerism.

[8] = tested on: Relapsing Experimental Autoimmune Encephalitis; test: treatment of active R-EAE at day 10, route of administration; format: in vivo, mouse
Experimental: Experiments were conducted during development of embodiments of the present invention to investigate the ability of the PLG-PLP139-151 particles to treat disease rather than prevent disease, and to determine whether the route of administration affected the development of disease. Mice were immunized at day 0 with PLP139-151 and an adjuvant. Mice normally have maximal clinical scores at day 12-14. In this model, the mice were treated at day 10 with the PLG-PLP139-151 particles or with control PLG-OVA323-339 particles either via intravenous (iv) administration, intraperitoneal (ip) administration, subcutaneous (sc) administration, or orally. […] This is in contrast to animals treated with PLP139-151 polystyrene particles, whereby >70% of animals where observed to die from anaphylaxis.

[9] = tested on: adoptive EAE; test: adoptive transfer EAE treated with antigen-coupled PLG particles; format: in vivo, mouse; conditions: for mean clinical score: treated at day 2
Experimental: Experiments were conducted during development of embodiments of the present invention to investigate a second model of active disease termed adoptive transfer. Rather than immunizing the animals with the peptide, the lymphocytes from the spleen of mice with active disease were transferred to a recipient, who would subsequently develop disease. Experiments were conducted during development of embodiments of the present invention to characterize the ability of the PLG nanoparticles to deactivate the adoptively transferred activated effector cells.
Therapeutic tolerance induced by PLP139-151-PLG particles was compared in active and adoptive EAE. Adoptive EAE was induced in six to eight-week old female SJL/J mice by adoptive transfer of 2.5×10^6 PLP139-151-activated blasts. Mice were injected iv with PLP139-151 (squares) or OVA323-339 (circles) peptide coupled to 500 nm PLG nanoparticles 2 days (FIG. 14A) or 14 days (FIG. 14C) following disease induction. Clinical disease scores were compared to those following treatment with antigen-coupled splenocytes (FIG. 14A). Brain and spinal cord were collected from PLP139-151- or OVA323-339-tolerized mice for histological analysis on day 42. Sections from mice from panel A were stained for PLP protein and CD45 (FIG. 14B). Spinal cord sections from mice from panel C were stained with Luxol Fast Blue (FIG. 14D). Areas of demyelination and cellular infiltration are indicated by arrows.
SJL/J mice were injected i.v. with 500 nm PLG nanoparticles coupled with PLP139-151 (squares) or OVA323-339 (circles) 2 days following EAE induction by adoptive transfer. At the peak of disease (day 14) brains and spinal cords were removed and the number of lymphocytes (FIG. 16B), APCs (FIG. 16C), microglia (FIG. 16D), peripheral dendritic cells (FIG. 16E), myeloid dendritic cells (FIG. 16F) and macrophages (FIG. 16G) were enumerated by flow cytometry. The gating strategy for these populations is depicted in (FIG. 16A). CNS cell preparations were stimulated with PMA and ionomycin for 5 h prior to intracellular staining for IL-17A and IFN-γ (FIG. 16H).

[10] = tested on: SJL/J mice with EAE; test: iv injection during EAE remission (day 21), anaphylaxis; format: in vivo, mouse; conditions: administration during remission, d21
Experimental: EAE was induced in six to eight week old female SJL/J mice by subcutaneous injection of PLP139-151 in CFA, and development of clinical disease was monitored and recorded (FIG. 5B). On d21 relative to disease induction, mice were given iv injections of soluble PLP139-151 (clear squares), soluble OVA323-339 (clear circles), or the same peptides coupled to PLG nanoparticles (solids). Temperature of animals was monitored and recorded every 10 minutes for 1 hour following injection (FIG. 5A).

[11] = tested on: OVA/Alum pre-sensitized mice; test: anaphylaxis-induced temperature drop in OVA/Alum pre-sensitized animals; format: in vivo, mouse; conditions: iv on day 28; within 1 hour of delivering
Experimental: Due to the presence of active disease, anaphylaxis to the antigens is a concern, which could result in immediate mortality, and has been described with polystyrene bound particles. Anaphylaxis is associated with a significant drop in body temperature. To test whether intravenous administration of OVA-PLG induces an anaphylaxis-induced temperature drop in pre-sensitized animals, mice were immunized at day 0 with 10 μg OVA/Alum via intraperitoneal injection. On day 14, the mice were again immunized with 10 μg OVA/Alum via intraperitoneal injection, and then tolerized with OVA-PLG administered intravenously on day 21. On day 28, the mice were then tolerized with either OVA-PLG particles or OVA via intravenous administration.

OVA323-339-PLG: control peptide OVA323-339 coupled to PLG particles (KISQAVHAAHAEINEAG; also: coupled to PLG particles; UniProt P01012 323-339, looked up, fragment)
prevention of disease induction [1]: did not prevent disease induction
Th1 and Th17 responses [2]: inhibited the Th1 and Th17 responses
staining for CD45, CD4, and CD11b ([3]; day 40): positive staining

OVA-PLG: OVA with PLG particles: coupled in Example 3, encapsulated in Examples 12 and 13, OVA323 peptide control in Example 16
eosinophils in the lung [4]: reduced
levels of serum OVA IgE [4]: reduced
secretion of IL-4, IL-5, IL-13 and IL-10 ([4]; iv day −7 and day 7): decreased
lymph node proliferation ([5]; after restimulation with 25 μg OVA): decreased
levels of IL-4, IL-5, IL-13, and IL-10 ([5]; after restimulation with OVA): decreased
eosinophils in the lung [6]: reduced
levels of serum OVA IgE [6]: reduced
secretion of IL-4, IL-5, IL-13 and IL-10 ([6]; iv days 28 and 42): decreased
engraftment, one mouse ([7]; Day −7, Day +1 group, FIG. 28): 12%
engraftment (percent of donor CD45.1 cells), individual mice ([7]; tolerized day 1, FIG. 27): ~10%

PLP139-151 polystyrene particles: PLP139-151 bound to polystyrene particles (CHCLGKWLGHPDK; cysteine pairing not given here; also: bound to polystyrene particles; UniProt P60202 139-151, looked up, fragment) [reference compound]
animals observed to die from anaphylaxis ([8]; mouse, in vivo): > 70%

PLP139-151-PLG: immunodominant proteolipid protein PLP139-151 epitope coupled to 500 nm PLG nanoparticles (CHCLGKWLGHPDK; cysteine pairing not given here; also: coupled to 500 nm PLG nanoparticles; UniProt P60202 139-151, looked up, fragment)
down-regulating induction of R-EAE, by type of particle ([1]; day −7, FIGS. 3A and 3B): more effective in down-regulating induction of R-EAE
delayed-type hypersensitivity (DTH) responses ([1]; to immunizing PLP139-151 epitope): lack of delayed-type hypersensitivity (DTH) responses
clinical score ([1]; all time points except days 20 to 30): 0
clinical score ([1]; between days 20 and 30): under 1
prevention of disease induction [1]: specifically prevented EAE development
disease (mean clinical score) ([9]; adoptive EAE, iv 2 days following disease induction (FIG. 15B)): reduced disease
tolerance induction in adoptive EAE ([9]; iv 2 or 14 days following disease induction): tolerance is induced
infiltration of central nervous system immune cells ([9]; iv day 2, peak of disease (day 14), flow cytometry): drastically reduced
mean clinical score ([9]; all but two time points through day 40): 0
mean clinical score ([9]; the other two time points): 0.25
disease (mean clinical score) ([8]; active EAE, iv 10 days following disease induction (FIG. 15A)): reduced disease
development of disease ([8]; administered intravenously): did not develop disease
mean clinical scores ([8]; administered intravenously, at most time points): 0
efficiency of tolerance by route of administration ([8]; iv, ip, sc or oral, FIG. 7): most efficient when the PLG-PLP139-151 particles are administered either intravenously or intraperitoneally
anaphylaxis-associated mortality [10]: does not result in any anaphylaxis-associated mortality
immune cell infiltration within the spinal cord ([3]; day 40): reduction in immune cell infiltration
cervical spinal cord inflammation and demyelination ([3]; histological analysis, tissue retrieved at day 40): inhibits cervical spinal cord inflammation and demyelination
blood brain barrier (BBB) disruption and macrophage activation in the spinal cord ([3]; in vivo imaging, Angiosense and prosense): inhibits blood brain barrier (BBB) disruption and macrophage activation
staining for CD45, CD4, and CD11b ([3]; day 40): minimal staining

B1: OVA-PLG: OVA with PLG particles: coupled in Example 3, encapsulated in Examples 12 and 13, OVA323 peptide control in Example 16 (conjugate, UniProt P01012 2-386, looked up)
Ovalbumin: GSIGAASMEFCFDVFKELKVHHANENIFYCPIAIMSALAMVYLGAKDSTRTQINKVVRFDKLPGFGDSIEAQCGTSVNVHSSLRDILNQITKPNDVYSFSLASRLYAEERYPILPEYLQCVKELYRGGLEPINFQTAADQARELINSWVESQTNGIIRNVLQPSSVDSQTAMVLVNAIVFKGLWEKAFKDEDTQAMPFRVTEQESKPVQMMYQIGLFRVASMASEKMKILELPFASGTMSMLVLLPDEVSGLEQLESIINFEKLTEWTSSNVMEERKIKVYLPRMKMEEKYNLTSVLMAMGITDVFSSSANLSGISSAESLKISQAVHAAHAEINEAGREVVGSAEAGVDAASVSEEFRADHPFLFCIKHIATNAVLFFGRCVSP
modifications: coupled to or encapsulated in PLG particles
body temperature [11]: No decrease in body temperature

B2: soluble OVA: soluble ovalbumin given intravenously (protein, UniProt P01012 2-386, looked up)
Ovalbumin: B1 Ovalbumin
body temperature [11]: decrease in temperature
